Here are results for 24 compounds from US20250213555A1, “SUBSTITUTED TETRAHYDROFURAN ANALOGS AS MODULATORS OF SODIUM CHANNELS” (VERTEX PHARMACEUTICALS INCORPORATED, priority 2021, published 2025).

pIC50: −log10 of the molar value.

The target of this assay is human Nav 1.8 (Homo sapiens, UniProt Q9Y5Y9). In words: E-VIPR assay detecting and measuring Nav inhibition properties. It counts as cell-based. To be noted: HEK cells expressing a truncated form of human Nav 1.8; compound numbers without "*" (not marked as run in the presence of human serum); read-out: measured IC50 value in the E-VIPR Assay. The procedure, abridged: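 Nav inhibition was read by E-VIPR: cells were electrically stimulated while coumarin/oxonol FRET emissions were recorded. Cells were HEK expressing a truncated human Nav 1.8 and co-transduced with KIR2.1, and were assayed in 25% final human serum.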
Chain of human Nav 1.8 (Q9Y5Y9 126-399 limits assumed): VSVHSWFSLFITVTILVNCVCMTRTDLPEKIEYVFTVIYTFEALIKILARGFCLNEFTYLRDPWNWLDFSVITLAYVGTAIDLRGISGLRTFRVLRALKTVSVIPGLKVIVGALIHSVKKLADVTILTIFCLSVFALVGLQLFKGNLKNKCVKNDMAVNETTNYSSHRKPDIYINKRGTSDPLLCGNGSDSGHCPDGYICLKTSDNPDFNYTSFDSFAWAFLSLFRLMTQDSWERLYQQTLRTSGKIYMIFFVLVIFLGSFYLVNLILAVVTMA
Chain of human Nav 1.8 (Q9Y5Y9 660-890 limits assumed): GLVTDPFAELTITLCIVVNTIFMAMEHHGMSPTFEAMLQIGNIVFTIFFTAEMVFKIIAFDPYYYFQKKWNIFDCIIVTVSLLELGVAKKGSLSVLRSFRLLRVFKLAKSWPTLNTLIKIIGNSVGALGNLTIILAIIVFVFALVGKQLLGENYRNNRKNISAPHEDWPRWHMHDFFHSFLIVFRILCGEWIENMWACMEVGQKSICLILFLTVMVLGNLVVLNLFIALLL
Chain of human Nav 1.8 (Q9Y5Y9 1148-1722 limits assumed): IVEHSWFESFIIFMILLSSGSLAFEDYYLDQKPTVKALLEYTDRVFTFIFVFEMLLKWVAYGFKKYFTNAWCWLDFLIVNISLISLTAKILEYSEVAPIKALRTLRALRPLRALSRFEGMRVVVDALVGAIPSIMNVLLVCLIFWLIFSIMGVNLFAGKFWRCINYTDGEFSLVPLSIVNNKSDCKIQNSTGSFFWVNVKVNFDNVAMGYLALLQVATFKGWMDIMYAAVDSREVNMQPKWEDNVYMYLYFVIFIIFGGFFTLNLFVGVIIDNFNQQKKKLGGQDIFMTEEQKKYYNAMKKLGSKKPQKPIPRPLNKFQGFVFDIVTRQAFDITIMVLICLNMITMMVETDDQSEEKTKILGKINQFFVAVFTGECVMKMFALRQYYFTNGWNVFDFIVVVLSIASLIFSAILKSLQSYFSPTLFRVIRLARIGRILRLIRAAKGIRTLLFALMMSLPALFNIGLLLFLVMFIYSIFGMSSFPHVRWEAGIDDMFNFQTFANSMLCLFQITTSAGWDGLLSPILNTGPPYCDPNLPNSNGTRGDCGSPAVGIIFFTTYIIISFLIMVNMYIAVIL
With `COc1c([C@H]2[C@H](C(=O)Nc3ccnc(C(=O)N4CCN(C)C[C@H]4C)c3)O[C@@](C)(C(F)(F)F)[C@H]2C)ccc(F)c1F` [Compound 274, (2R,3S,4S,5R)-3-(3,4-difluoro-2-methoxyphenyl)-N-(2-((R)-2,4-dimethylpiperazine-1-carbonyl)pyridin-4-yl)-4,5-dimethyl-5-(trifluoromethyl)tetrahydrofuran-2-carboxamide], the pIC50 is more than 8.00.
`C[C@H]1[C@@H](c2ccc(F)c(F)c2OCCN2CC3(CCO3)C2)[C@H](C(=O)Nc2ccnc(C(N)=O)c2)O[C@@]1(C)C(F)(F)F` [Compound 57, 4-((2R,3S,4S,5R)-3-(2-(2-(1-oxa-6-azaspiro[3.3]heptan-6-yl)ethoxy)-3,4-difluorophenyl)-4,5-dimethyl-5-(trifluoromethyl)tetrahydrofuran-2-carboxamido)picolinamide]: the pIC50 is more than 8.00.
To `COc1c([C@H]2[C@H](C(=O)Nc3ccnc(C(=O)N4CCN(C)CC4)c3)O[C@@](C)(C(F)(F)F)[C@H]2C)ccc(F)c1F` [Compound 8, (2R,3S,4S,5R)-3-(3,4-difluoro-2-methoxy-phenyl)-4,5-dimethyl-N-[2-(4-methylpiperazine-1-carbonyl)-4-pyridyl]-5-(trifluoromethyl)tetrahydrofuran-2-carboxamide] belongs more than 8.00; to `COc1c([C@H]2[C@H](C(=O)Nc3ccnc(C(=O)O)c3)O[C@@](C)(C(F)(F)F)[C@H]2C)ccc(F)c1F` [Compound 214, 4-((2R,3S,4S,5R)-3-(3,4-difluoro-2-methoxyphenyl)-4,5-dimethyl-5-(trifluoromethyl)tetrahydrofuran-2-carboxamido)picolinic acid], 7.00 to 8.00.
Under `COc1c([C@H]2[C@H](C(=O)Nc3ccnc(C(=O)N4CCC45CNC5)c3)O[C@@](C)(C(F)(F)F)[C@H]2C)ccc(F)c1F` [Compound 225, (2R,3S,4S,5R)-N-(2-(1,6-diazaspiro[3.3]heptane-1-carbonyl)pyridin-4-yl)-3-(3,4-difluoro-2-methoxyphenyl)-4,5-dimethyl-5-(trifluoromethyl)tetrahydrofuran-2-carboxamide] stands 7.00 to 8.00; under `CC[C@H](CO)COc1c([C@H]2[C@H](C(=O)Nc3ccnc(C(N)=O)c3)O[C@@](C)(C(F)(F)F)[C@H]2C)ccc(F)c1F` (single isomer, unassigned) [Compound 92, rel-4-((2R*,3S*,4S*,5R*)-3-(3,4-difluoro-2-(2-(hydroxymethyl)butoxy)phenyl)-4,5-dimethyl-5-(trifluoromethyl)tetrahydrofuran-2-carboxamido)picolinamide], 7.00 to 8.00; under `C[C@H]1[C@@H](c2cc(Br)c(F)c(F)c2O)[C@H](C(=O)Nc2ccnc(C(N)=O)c2)O[C@@]1(C)C(F)(F)F` [Compound 176, 4-((2R,3S,4S,5R)-3-(5-bromo-3,4-difluoro-2-hydroxyphenyl)-4,5-dimethyl-5-(trifluoromethyl)tetrahydrofuran-2-carboxamido)picolinamide], not above 6.00.
Under `C[C@H]1[C@@H](c2ccc(F)c(F)c2OCc2cn[nH]c2)[C@H](C(=O)Nc2ccnc(C(N)=O)c2)O[C@@]1(C)C(F)(F)F` [Compound 168, 4-((2R,3S,4S,5R)-3-(2-((1H-pyrazol-4-yl)methoxy)-3,4-difluorophenyl)-4,5-dimethyl-5-(trifluoromethyl)tetrahydrofuran-2-carboxamido)picolinamide] stands more than 8.00; under `C[C@H]1[C@@H](c2ccc(F)c(F)c2OCCN2CC3(CCOC3)C2)[C@H](C(=O)Nc2ccnc(C(N)=O)c2)O[C@@]1(C)C(F)(F)F` [Compound 126, 4-((2R,3S,4S,5R)-3-(2-(2-(6-oxa-2-azaspiro[3.4]octan-2-yl)ethoxy)-3,4-difluorophenyl)-4,5-dimethyl-5-(trifluoromethyl)tetrahydrofuran-2-carboxamido)picolinamide], 7.00 to 8.00; under `C[C@H]1[C@@H](c2ccc(F)c(F)c2OCCN2CCOC3CC32)[C@H](C(=O)Nc2ccnc(C(N)=O)c2)O[C@@]1(C)C(F)(F)F` (stereo partly drawn) [Compound 50, 4-((2R,3S,4S,5R)-3-(2-(2-(2-oxa-5-azabicyclo[4.1.0]heptan-5-yl)ethoxy)-3,4-difluorophenyl)-4,5-dimethyl-5-(trifluoromethyl)tetrahydrofuran-2-carboxamido)picolinamide], more than 8.00.
For the compound `C[C@H]1[C@@H](c2ccc(F)c(F)c2O[C@H]2C[C@@H](O)C2)[C@H](C(=O)Nc2ccc(F)c(C(N)=O)c2)O[C@@]1(C)C(F)(F)F` [Compound 202], the pIC50 is more than 8.00.
As to `C[C@H]1[C@@H](c2ccc(F)c(F)c2OCCN2C[C@H]3C[C@@H]2CO3)[C@H](C(=O)Nc2ccnc(C(N)=O)c2)O[C@@]1(C)C(F)(F)F` (relative stereo) [Compound 47, rel-4-((2R*,3S*,4S*,5R*)-3-(2-(2-((1R,4R)-2-oxa-5-azabicyclo[2.2.1]heptan-5-yl)ethoxy)-3,4-difluorophenyl)-4,5-dimethyl-5-(trifluoromethyl)tetrahydrofuran-2-carboxamido)picolinamide], the pIC50 is 7.00 to 8.00.
To `C[C@H]1[C@@H](c2ccc(C(F)F)nc2OCCO)[C@H](C(=O)Nc2ccnc(C(N)=O)c2)O[C@@]1(C)C(F)(F)F` [Compound 208, 4-((2R,3S,4S,5R)-3-(6-(difluoromethyl)-2-(2-hydroxyethoxy)pyridin-3-yl)-4,5-dimethyl-5-(trifluoromethyl)tetrahydrofuran-2-carboxamido) picolinamide] belongs 6.00 to 7.00; to `C[C@H]1[C@@H](c2ccc(F)c3c2CCC3(F)F)[C@H](C(=O)Nc2ccnc(C(N)=O)c2)O[C@@]1(C)C(F)(F)F` (single isomer, unassigned) [Compound 149], more than 8.00.
To `C[C@H]1[C@@H](c2ccc(F)c(F)c2OCCN2CC(C)(F)C2)[C@H](C(=O)Nc2ccnc(C(N)=O)c2)O[C@@]1(C)C(F)(F)F` [Compound 121, 4-((2R,3S,4S,5R)-3-(3,4-difluoro-2-(2-(3-fluoro-3-methylazetidin-1-yl)ethoxy)phenyl)-4,5-dimethyl-5-(trifluoromethyl)tetrahydrofuran-2-carboxamido)picolinamide] belongs more than 8.00; to `C[C@H]1[C@@H](c2ccc(F)c(F)c2OC2CC(C#N)C2)[C@H](C(=O)Nc2ccnc(C(N)=O)c2)O[C@@]1(C)C(F)(F)F` (stereo partly drawn) [Compound 80, 4-((2R,3S,4S,5R)-3-(2-(3-cyanocyclobutoxy)-3,4-difluorophenyl)-4,5-dimethyl-5-(trifluoromethyl)tetrahydrofuran-2-carboxamido)picolinamide], more than 8.00; to `CC(C)(O)COc1c([C@@H]2C[C@](C)(C(F)(F)F)O[C@H]2C(=O)Nc2ccnc(C(N)=O)c2)ccc(F)c1F` (relative stereo) [Compound 32, rel-4-((2R,3S,5R)-3-(3,4-difluoro-2-(2-hydroxy-2-methylpropoxy)phenyl)-5-methyl-5-(trifluoromethyl)tetrahydrofuran-2-carboxamido) picolinamide], 6.00 to 7.00.
To `C[C@H]1[C@@H](c2ccc(F)c(F)c2OCCN2C3CCC2COC3)[C@H](C(=O)Nc2ccnc(C(N)=O)c2)O[C@@]1(C)C(F)(F)F` [Compound 113, 4-((2R,3S,4S,5R)-3-(2-(2-(3-oxa-8-azabicyclo[3.2.1]octan-8-yl)ethoxy)-3,4-difluorophenyl)-4,5-dimethyl-5-(trifluoromethyl)tetrahydrofuran-2-carboxamido)picolinamide] belongs 7.00 to 8.00.
As to `C[C@H]1[C@@H](c2ccc(F)c(F)c2OCC(=NO)C2CC2)[C@H](C(=O)Nc2ccnc(C(N)=O)c2)O[C@@]1(C)C(F)(F)F` (single isomer, unassigned) [Compound 183, rel-4-((2R*,3S*,4S*,5R*)-3-(2-(2-cyclopropyl-2-(hydroxyimino)ethoxy)-3,4-difluorophenyl)-4,5-dimethyl-5-(trifluoromethyl)tetrahydrofuran-2-carboxamido) picolinamide], the pIC50 is more than 8.00.
To `COc1c([C@H]2[C@H](C(=O)Nc3ccnc(C(=O)N4C[C@H](OC)[C@@H](N)C4)c3)O[C@@](C)(C(F)(F)F)[C@H]2C)ccc(F)c1F` [Compound 262, (2R,3S,4S,5R)-N-(2-((3S,4S)-3-amino-4-methoxypyrrolidine-1-carbonyl)pyridin-4-yl)-3-(3,4-difluoro-2-methoxyphenyl)-4,5-dimethyl-5-(trifluoromethyl)tetrahydrofuran-2-carboxamide] belongs more than 8.00; to `C[C@H]1[C@@H](c2ccc(F)c(F)c2OC2CCOCC2)[C@H](C(=O)Nc2ccnc(C(N)=O)c2)O[C@@]1(C)C(F)(F)F` [Compound 65, 4-((2R,3S,4S,5R)-3-(3,4-difluoro-2-((tetrahydro-2H-pyran-4-yl)oxy)phenyl)-4,5-dimethyl-5-(trifluoromethyl)tetrahydrofuran-2-carboxamido)picolinamide], more than 8.00; to `COCCOc1c([C@@H]2[C@@H](C(=O)Nc3ccnc(C(N)=O)n3)O[C@](C)(C(F)(F)F)[C@@H]2C)ccc(F)c1C` (single isomer, unassigned) [Compound 4], not above 6.00.
To `COc1c([C@H]2[C@H](C(=O)Nc3ccnc(C(=O)N4C[C@H]5CC[C@@H](C4)NC5)c3)O[C@@](C)(C(F)(F)F)[C@H]2C)ccc(F)c1F` [Compound 244, (2R,3S,4S,5R)-N-(2-((1S,5S)-3,6-diazabicyclo[3.2.2]nonane-3-carbonyl)pyridin-4-yl)-3-(3,4-difluoro-2-methoxyphenyl)-4,5-dimethyl-5-(trifluoromethyl)tetrahydrofuran-2-carboxamide] belongs more than 8.00; to `COc1c([C@H]2[C@H](C(=O)Nc3ccnc(C(=O)N4C[C@@H](N)[C@H](OC)C4)c3)O[C@@](C)(C(F)(F)F)[C@H]2C)ccc(F)c1F` [Compound 263, (2R,3S,4S,5R)-N-(2-((3R,4R)-3-amino-4-methoxypyrrolidine-1-carbonyl)pyridin-4-yl)-3-(3,4-difluoro-2-methoxyphenyl)-4,5-dimethyl-5-(trifluoromethyl)tetrahydrofuran-2-carboxamide], more than 8.00.
